Measured values taken from US9358229B2, “JAK PI3K/mTOR combination therapy” (Novartis Pharma AG, priority 2011, dated 2016).
Like-named read-outs stand apart in the source and are kept apart here.

Legend:
[1] = system: CD34+ cells of healthy donors; experiment: Proliferation of CD34+ cells of healthy donors; format: cell-based; settings: Homo sapiens
[2] = system: JAK2V617F mutated patients cells; experiment: Single-colony genotyping in JAK2V617F mutated patients cells; format: cell-based, human; settings: n=7
Experimental: (§1) Then, the activity of RAD001 and Compound A was analyzed in primary cells from MPN patients.

[3] = system: BaF3 JAK2V617F-luc+ cells; experiment: SCID BaF3 JAK2V617F-luciferase mouse model; format: in vivo; settings: daily per os, 60 mpk Compound B, 45 mpk Compound A
Experimental: To ascertain the effects of drugs targeting PI3K/Akt/mTOR pathway alone and in combination with JAK2 inhibitor in a murine model of myeloproliferative neoplasms, a SCID BaF3 JAK2^V617F-luciferase mouse model was used. […] Female SCID mice (4-6 weeks of age; Harlan) were fed rodent standard chow and provided with water ad libitum. Mice were given 3×10^6 JAK2^V617F-luc+ cells by tail vein injection. Mice were injected with D-luciferin before imaging to detect a bioluminescence signal that is proportional to the clone burden. Baseline imaging was performed using a Photon Imager (Biospace Lab) apparatus to establish bioluminescence on day 6 after cell injection. […] Drugs treatment was administered daily per os (by mouth). Imaging was performed on day 7, 14, 21, and 28 after the first drug dose. Mice were followed daily for survival and humanely sacrificed when they developed hind limb paralysis or became moribund and considered deceased at the time at which they were sacrificed.

CD34+ cells of MF pts = experiment: Proliferation of CD34+ cells of MF patients; format: cell-based; settings: Homo sapiens
Experimental: (§2) Mouse (Ba/F3 and Ba/F3-EPOR wild-type or expressing JAK2V617F(VF)) and human (JAK2VF mutated HEL and SET2) cell lines and primary MPN CD34+ cells from patients with myelofibrosis (MF) or polycythemia vera (PV) were used; BCR/ABL mutated K562 cells were used in some experiments. Cell proliferation, colony formation, apoptosis, cell cycle and protein phosphorylation status were evaluated. Effects of drug combination were analyzed according to Chou and Talalay to calculate the combination index (CI); a CI<1.0 indicates synergistic activity.
as §1

[4] = system: BCR/ABL mutated K562 cells; experiment: Cell proliferation in K562 cells; format: cell-based; settings: Homo sapiens
Experimental: as §2

[5] = system: JAK2V617F-mutated SET2 cells; experiment: Cell proliferation and colony formation in SET2 cells; format: cell-based; settings: Homo sapiens, SET-2
[6] = system: Ba/F3-EPOR JAK2 wild-type (wt) cells; experiment: Cell proliferation in Ba/F3-EPOR JAK2 wild-type cells; format: cell-based; settings: Mus musculus, read-out: IC50, cell proliferation
Experimental: as §2

[7] = system: EPO-independent colonies (EEC) of PV patients cells; experiment: Erythropoietin-independent colony (EEC) assay; format: cell-based, human; settings: for prevention of erythropoietin-independent colony (EEC) formation: primary cells from MPN patients
Experimental: as §2, §1

[8] = system: Ba/F3-EPOR JAK2V617F-mutated cells; experiment: Cell proliferation in Ba/F3-EPOR JAK2V617F-mutated cells; format: cell-based; settings: Mus musculus, read-out: IC50, cell proliferation
Experimental: as §2

[9] = system: JAK2V617F-mutated HEL cells; experiment: Cell proliferation and colony formation in HEL cells; format: cell-based; settings: Homo sapiens
Experimental: as §2

[10] = system: JAK2 V617F Knock-in (KI) mouse; experiment: C57B16/J JAK2 V617F Knock-in (KI) mouse model; format: in vivo; settings: KI mice treated for 5 days
Experimental: Mice were treated for 5 days, then blood, spleen and bone marrow cells were obtained for further analysis.

[11] = system: cell lines (Ba/F3, Ba/F3-EPOR, HEL, SET2); experiment: Apoptosis (Annexin-V) in cell lines; format: cell-based; settings: at maximum / highest concentrations
Experimental: as §2

Row | Structure (SMILES) | IC50 [1] [nM] | reduction of VF in favor of wild-type colonies ([2]; mean) [%] | reduction of VF in favor of wild-type colonies, range ([2]; range) | MEAN LIFESPAN [3] [days] | LIFESPAN INCREASE (%) VS VEHICLE [3] [%] | IC50 (CD34+ cells of MF pts) [nM] | IC50 [4] [nM] | IC50 [5] [nM] | IC50 [6] [nM] | IC50 ([7]; Homo sapiens, PV patients cells, read-out: IC50, growth of EPO-independent colonies (EEC)) [nM] | prevention of erythropoietin-independent colony (EEC) formation [7] | IC50 [8] [nM] | IC50 [9] [nM] | median spleen index (ratio of spleen weight to body weight×100) [10] | reticulocyte count median [10] [No. per HPF] | apoptosis / Annexin-V +ve cells [11] | IC50 ([6]; Ba/F3-EPOR JAK2 wild-type cells) [nM] | IC50 ([8]; Ba/F3-EPOR JAK2V617F-mutated cells) [nM]
1 | Cn1c(=O)n(-c2ccc(C(C)(C)C#N)cc2)c2c3cc(-c4cnc5ccccc5c4)ccc3ncc21 [Compound A, 2-methyl-2-[4-(3-methyl-2-oxo-8-quinolin-3-yl-2,3-dihydro-imidazo[4,5-c]quinolin-1-yl)-phenyl]-propionitrile] | 780 ± 150 | 40±16 | 18-71% | 24 | 42 | 43 ± 20 | 5000 | 334 ± 40 | 676 ± 200 | 20 ± 10 | low nM range | 87 ± 50 | 387 ± 90 | 35 | 50 | 30-40% |  | 
2 | N#CC[C@H](C1CCCC1)n1cc(-c2ncnc3[nH]ccc23)cn1 [Compound B, (3R)-3-cyclopentyl-3-[4-(7H-pyrrolo[2,3-d]pyrimidin-4-yl)-1H-pyrazol-1-yl]propanenitrile] |  |  |  | 19 | 19 |  |  |  |  |  |  |  |  |  | 44 |  |  | 
3 | CO[C@H]1C[C@@H]2CC[C@@H](C)[C@@](O)(O2)C(=O)C(=O)N2CCCC[C@H]2C(=O)O[C@H]([C@H](C)C[C@@H]2CC[C@@H](OCCO)[C@H](OC)C2)CC(=O)[C@H](C)/C=C(\C)[C@@H](O)[C@@H](OC)C(=O)[C@H](C)C[C@H](C)/C=C/C=C/C=C/1C [RAD001, reference compound] |  |  |  |  |  |  |  |  |  |  | low nM range |  |  |  |  |  | > 10000 | 615 ± 50
